{"source": "patent US8785483B2", "about": "“Methods for treating COPD” (The Board of Regents of the University of Texas System, priority 2010, dated 2014)", "key": {"STAT-6 [1]": {"tested_on": "STAT-6", "assay": "Western blot of STAT-6 phosphorylation in airway epithelial monolayer", "format": "cell-based, human", "settings": "ALI monolayer, AR inhibitor 24 h prior to IL-13", "method": "FIG. 7. AR inhibition prevents IL-13-induced phosphorylation of JAK-1, ERK1/2 and STAT-6 in airway epithelial monolayer. The ciliated monolayer of airway cells at ALI was treated with AR inhibitor for 24 h and stimulated with IL-13 for different time periods as indicated. At the end of incubation, cells were lysed and cell lysate was subjected to western blotting using antibodies against phosphorylated and nonphosphorylated JAK-1, ERK1/2 and STAT-6 to analyze the activation of these signaling proteins. A representative blot is shown (n=4). #p<0.001 vs Control; *p<0.01 and **p<0.001 vs IL-13. For air-liquid interface (ALI) culture, SAEC were seeded at 8.5×10^4 cells/12-mm-diameter PET transparent insert with […] pores (12-well millicell culture insert; Millipore) and pre-coated with rat tail collagen type-1 (Sigma-Aldrich). The cells were grown submerged in the differentiation medium as described earlier by Zhen et al. (Am J Respir Cell Mol Biol 36: 244-253, 2007). […] Protein levels were determined using Bradford reagent (Biorad, Hercules, Calif.). […] The blots were then washed, exposed to HRP-conjugated secondary antibodies (1:5,000 dilution) for 1 h, and the antigen-antibody complex was detected by enhanced chemiluminescence (Amersham Pharmacia Biotech, Piscataway, N.J., USA). […]"}, "STAT-6 [2]": {"tested_on": "STAT-6", "assay": "RWE-induced STAT-6 phosphorylation in mouse lung epithelium (immunostaining)", "format": "in vivo", "settings": "RWE-sensitized and challenged mice, fidarestat 7 mg/kg body wt/day in drinking water, 20 h after challenge", "method": "FIGS. 9A-9B. AR inhibition prevents phosphorylation of STAT-6 in mouse lung epithelium. The mice were sensitized and challenged with PBS or RWE, without or with AR inhibitor and 20 h later lungs were perfused and fixed with 4% paraformaldehyde, embedded in paraffin, and sectioned to […]. The sections were immunostained with p-STAT-6 specific antibodies using immunofluoroscence secondary antibodies (A) or DAB-based HRP conjugated antibodies counterstained with hematoxylin and eosin (B). Photomicrographs were acquired by fluorescence or light microscopy. A representative field for each group is shown (magnification: 200×). […] RWE, ragweed pollen extract; ARI, aldose reductase inhibitor.\nWild type C57BL/6 and Balb/cJ mice were purchased from Harlan Sprague-Dawley (San Diego, Calif., USA) and AR null mice on C57BL/6 background were bread by us at Animal resource center, UTMB, Galveston, Tex. Six-eight weeks old female mice were sensitized with RWE as previously described (Hwang et al., FASEB J. 19: 795-797, 2005). […]\nApproximately 20 h after RWE-challenge, mice are killed, and their lungs perfused and fixed with 4% paraformaldehyde, embedded in paraffin, and 5 μm sections were obtained. […] Photomicrographs were acquired by a Photometrix CoolSNAP Fx camera mounted on a NIKON Eclipse TE 200 UV microscope using fluorescence or bright-field microscopy, respectively."}}}
{"smiles": "NC(=O)[C@@H]1C[C@]2(NC(=O)NC2=O)c2cc(F)ccc2O1", "note": "[fidarestat, (2S,4S)-2-aminoformyl-6-fluoro-spiro[chroman-4,4′-imidazolidine]-2′,5′-dione]", "values": [{"measurement": "IL-13-induced phosphorylation of STAT-6", "setting": "STAT-6 [1]", "result": "decreased significantly"}, {"measurement": "RWE-induced phospho-STAT-6 staining in lung epithelium", "setting": "STAT-6 [2]", "result": "prevented by AR inhibition"}]}
